Assay results: article PMC11093668 (Clinical Infectious Diseases: An Official Publication of …, 2023)
Like-named read-outs stand apart in the source and are kept apart here.

Columns and labels:
[1] = human, in vivo
HIV [2] = tested on: HIV; design: method as in ref 25 = [25]; 25 Fda, Cder . Reyataz (atazanavir sulfate) capsules label. Available at: www.fda.gov/medwatch . Accessed 17 September 2019.; settings: primary target minimum concentration; cited from earlier work
HIV [3] = tested on: HIV; design: method as in ref 26 = [26]; 26 Gonzalez de Requena D , Bonora S , Canta F , et al Atazanavir trough is associated with efficacy and safety: definition of therapeutic range. In: 6th Intenational Workshop on Clinical Pharmacology; settings: secondary target; cited from earlier work
clinical = settings: human, in vivo, geometric mean (90% CI)
[4] = atazanavir co-administration; cited from earlier work

In the case of `CC(C)c1nc(CN(C)C(=O)N[C@H](C(=O)N[C@@H](Cc2ccccc2)C[C@H](O)[C@H](Cc2ccccc2)NC(=O)OCc2cncs2)C(C)C)cs1` [Ritonavir, ritonavir], the “AUC24, geometric mean (90% CI)” value [1] is reported as 9.5 (8.4 - 11) mg·h/L, the “Clearance/F, geometric mean (90% CI)” value [1] is reported as 11 (9.34 - 11.9 L/h and the “T1/2, geometric mean (90% CI)” value [1] is reported as 5.7 (5.4- 6.1) h. The “Ctau, geometric mean (90% CI)” value ([1]; 24 h) was 0.068 (0.060- 0.077) mg/L.

In the case of `COC(=O)N[C@H](C(=O)N[C@@H](Cc1ccccc1)[C@@H](O)CN(Cc1ccc(-c2ccccn2)cc1)NC(=O)[C@@H](NC(=O)OC)C(C)(C)C)C(C)(C)C` [Atazanavir, atazanavir], the “AUC24, geometric mean (90% CI)” value [1] is reported as 40 (35–46) mg·h/L, the “Clearance/F, geometric mean (90% CI)” value [1] is reported as 7.5 (6.6–8.7) L/h and the “T1/2, geometric mean (90% CI)” value [1] is reported as 11 (10–12) h. The “Ctau, geometric mean ratio (90% CI)” value ([1]; 12 h) was 0.98 (0.81–1.2), the “Ctau, geometric mean (90% CI)” value ([1]; 24 h) was 0.59 (0.48–0.74) mg/L and the “Ctau, geometric mean ratio (90% CI)” value ([1]; 24 h) was 0.039 (0.032– 0.048). The “lowest Ctau, fold higher than PA-IC90” value ([1]; 24 h) was 12.7 fold, the “proportion of Ctau below the limit of quantification (0.03 mg/L)” value ([1]; 24 h) was 65% and the “protein-adjusted IC90 (PA-IC90)” value (HIV [2]) was 0.014 µg/mL. The “minimum effective concentration (MEC)” value (HIV [3]) was 0.15 mg/L and the Cmax (clinical) was 4600 ng/mL.

In the case of `C[C@@H]1CCO[C@H]2Cn3cc(C(=O)NCc4ccc(F)cc4F)c(=O)c(O)c3C(=O)N12` [Dolutegravir, dolutegravir], the “AUC24 (exposure) higher with dose escalation of ATV/r” value [1] is given as 1.6 fold, the “Ctau higher with dose escalation of ATV/r” value ([1]; 12 h) is given as 2 folds and the “increase in dolutegravir exposure” value [4] is given as 91%.

In the case of `CO[C@H]1/C=C/O[C@@]2(C)Oc3c(C)c(O)c4c(O)c(c(/C=N/N5CCN(C)CC5)c(O)c4c3C2=O)NC(=O)/C(C)=C\C=C\[C@H](C)[C@H](O)[C@@H](C)[C@@H](O)[C@@H](C)[C@H](OC(C)=O)[C@@H]1C` [Rifampicin, rifampicin], the “Ctau higher with dose escalated ATV/r” value ([1]; 24 h) is reported as 40%.
